Data: patent US20230183259A1, “Crystal Form Of Thiofuran Pyridazine Compound, Preparation Method Therefor And Application Thereof” (ZHEJIANG MEDICINE CO., LTD. XINCHANG PHARMACEUTICAL FACTORY, priority 2020, published 2023)

Tests used:
long-term stability test = format: physicochemical; conditions: 25° C.±2° C., relative humidity 60%±10%
Description: (§1) Stability tests were performed on the samples of Examples 1, 2, 3, 4 and 5. […] Please refer to the results of the acceleration test (40° C.±2° C., relative humidity 75%±5%) of Table 1 and the results of the long-term stability test (25° C.±2° C., relative humidity 60%±10%) of Table 2.

[1] = acceleration test (stability); format: physicochemical; conditions: 40° C.±2° C., relative humidity 75%±5%
Description: as §1

(S)-2-(4-fluorophenyl)-4-(piperidine-3-aminomethyl)thieno[2,3-d]pyridazine-7-carboxamide hydrochloride [Example 110601-2]
Crystal form (long-term stability test; 0 month): unchanged
ImpurityB(%) (long-term stability test; 0 month): 0.00%
Content (calculated by dried product )(%) (long-term stability test; 0 month, hydrochloride): 98.7%
Enantiomers (%) (long-term stability test; 0 month, hydrochloride): 0.09%
ImpurityA(%) (long-term stability test; 0 month, hydrochloride): 0.32%
ImpurityC(%) (long-term stability test; 0 month, hydrochloride): 0.02%
Loss on drying (%) (long-term stability test; 0 month, hydrochloride): 7.3%
Single largest impurity (%) (long-term stability test; 0 month, hydrochloride): 0.02%
Total relevant substances (%) (long-term stability test; 0 month, hydrochloride): 0.42%
appearance (long-term stability test; 0 month, hydrochloride): yellow crystalline
Crystal form (long-term stability test; 3 months): unchanged
ImpurityB(%) (long-term stability test; 3 months): 0.00%
ImpurityC(%) (long-term stability test; 3 months): 0.02%
Content (calculated by dried product )(%) (long-term stability test; 3 months, hydrochloride): 99.8%
Enantiomers (%) (long-term stability test; 3 months, hydrochloride): 0.09%
ImpurityA(%) (long-term stability test; 3 months, hydrochloride): 0.30%
Loss on drying (%) (long-term stability test; 3 months, hydrochloride): 7.3%
Single largest impurity (%) (long-term stability test; 3 months, hydrochloride): 0.03%
Total relevant substances (%) (long-term stability test; 3 months, hydrochloride): 0.39%
appearance (long-term stability test; 3 months, hydrochloride): yellow crystalline
Crystal form (long-term stability test; 6 months): unchanged
ImpurityB(%) (long-term stability test; 6 months): 0.00%
Content (calculated by dried product )(%) (long-term stability test; 6 months, hydrochloride): 99.7%
Enantiomers (%) (long-term stability test; 6 months, hydrochloride): 0.07%
ImpurityA(%) (long-term stability test; 6 months, hydrochloride): 0.25%
ImpurityC(%) (long-term stability test; 6 months, hydrochloride): 0.02%
Loss on drying (%) (long-term stability test; 6 months, hydrochloride): 7.2%
Single largest impurity (%) (long-term stability test; 6 months, hydrochloride): 0.02%
Total relevant substances (%) (long-term stability test; 6 months, hydrochloride): 0.34%
appearance (long-term stability test; 6 months, hydrochloride): yellow crystalline
Crystal form (long-term stability test; 9 months): unchanged
ImpurityC(%) (long-term stability test; 9 months): 0.02%
Content (calculated by dried product )(%) (long-term stability test; 9 months, hydrochloride): 99.6%
Enantiomers (%) (long-term stability test; 9 months, hydrochloride): 0.08%
ImpurityA(%) (long-term stability test; 9 months, hydrochloride): 0.27%
ImpurityB(%) (long-term stability test; 9 months, hydrochloride): 0.02%
Loss on drying (%) (long-term stability test; 9 months, hydrochloride): 7.3%
Single largest impurity (%) (long-term stability test; 9 months, hydrochloride): 0.02%
Total relevant substances (%) (long-term stability test; 9 months, hydrochloride): 0.38%
appearance (long-term stability test; 9 months, hydrochloride): yellow crystalline
Crystal form (long-term stability test; 12 months): unchanged
ImpurityB(%) (long-term stability test; 12 months): 0.01%
Single largest impurity (%) (long-term stability test; 12 months): 0.02%
Content (calculated by dried product )(%) (long-term stability test; 12 months, hydrochloride): 99.7%
Enantiomers (%) (long-term stability test; 12 months, hydrochloride): 0.07%
ImpurityA(%) (long-term stability test; 12 months, hydrochloride): 0.26%
ImpurityC(%) (long-term stability test; 12 months, hydrochloride): 0.03%
Loss on drying (%) (long-term stability test; 12 months, hydrochloride): 7.4%
Total relevant substances (%) (long-term stability test; 12 months, hydrochloride): 0.36%
appearance (long-term stability test; 12 months, hydrochloride): yellow crystalline
Crystal form (long-term stability test; 18 months): unchanged
ImpurityB(%) (long-term stability test; 18 months): 0.00%
Single largest impurity (%) (long-term stability test; 18 months): 0.02%
Content (calculated by dried product )(%) (long-term stability test; 18 months, hydrochloride): 100.7%
Enantiomers (%) (long-term stability test; 18 months, hydrochloride): 0.07%
ImpurityA(%) (long-term stability test; 18 months, hydrochloride): 0.30%
ImpurityC(%) (long-term stability test; 18 months, hydrochloride): 0.02%
Loss on drying (%) (long-term stability test; 18 months, hydrochloride): 7.2%
Total relevant substances (%) (long-term stability test; 18 months, hydrochloride): 0.36%
appearance (long-term stability test; 18 months, hydrochloride): yellow crystalline
Crystal form (long-term stability test; 24 months): unchanged
Enantiomers (%) (long-term stability test; 24 months): 0.08%
ImpurityB(%) (long-term stability test; 24 months): 0.00%
ImpurityC(%) (long-term stability test; 24 months): 0.02%
Single largest impurity (%) (long-term stability test; 24 months): 0.02%
Content (calculated by dried product )(%) (long-term stability test; 24 months, hydrochloride): 99.1%
ImpurityA(%) (long-term stability test; 24 months, hydrochloride): 0.30%
Loss on drying (%) (long-term stability test; 24 months, hydrochloride): 7.2%
Total relevant substances (%) (long-term stability test; 24 months, hydrochloride): 0.37%
appearance (long-term stability test; 24 months, hydrochloride): yellow crystalline
Crystal form (long-term stability test; 36 months): unchanged
ImpurityC(%) (long-term stability test; 36 months): 0.02%
Single largest impurity (%) (long-term stability test; 36 months): 0.02%
Content (calculated by dried product )(%) (long-term stability test; 36 months, hydrochloride): 99.5%
Enantiomers (%) (long-term stability test; 36 months, hydrochloride): 0.06%
ImpurityA(%) (long-term stability test; 36 months, hydrochloride): 0.31%
ImpurityB(%) (long-term stability test; 36 months, hydrochloride): 0.02%
Loss on drying (%) (long-term stability test; 36 months, hydrochloride): 7.2%
Total relevant substances (%) (long-term stability test; 36 months, hydrochloride): 0.43%
appearance (long-term stability test; 36 months, hydrochloride): yellow crystalline
(%) Impurity B (%) ([1]; 0 month): 0.00%
Crystal form ([1]; 0 month): unchanged
appearance ([1]; 0 month): yellow crystalline powder
Enantiomer (%) ([1]; 0 month, hydrochloride): 0.09%
Impurity A (%) ([1]; 0 month, hydrochloride): 0.32%
Impurity C (%) ([1]; 0 month, hydrochloride): 0.02%
Loss on drying (%) ([1]; 0 month, hydrochloride): 7.3%
Single largest impurity (%) ([1]; 0 month, hydrochloride): 0.02%
Total relevant substances (%) ([1]; 0 month, hydrochloride): 0.42%
content(%) ([1]; 0 month, hydrochloride): 98.7%
Crystal form ([1]; 1 month): unchanged
Impurity C (%) ([1]; 1 month): 0.02%
appearance ([1]; 1 month): yellow crystalline powder
(%) Impurity B (%) ([1]; 1 month, hydrochloride): 0.03%
Enantiomer (%) ([1]; 1 month, hydrochloride): 0.12%
Impurity A (%) ([1]; 1 month, hydrochloride): 0.28%
Loss on drying (%) ([1]; 1 month, hydrochloride): 7.3%
Single largest impurity (%) ([1]; 1 month, hydrochloride): 0.03%
Total relevant substances (%) ([1]; 1 month, hydrochloride): 0.42%
content(%) ([1]; 1 month, hydrochloride): 99.5%
Crystal form ([1]; 2 months): unchanged
appearance ([1]; 2 months): yellow crystalline powder
(%) Impurity B (%) ([1]; 2 months, hydrochloride): 0.04%
Enantiomer (%) ([1]; 2 months, hydrochloride): 0.1%
Impurity A (%) ([1]; 2 months, hydrochloride): 0.31%
Impurity C (%) ([1]; 2 months, hydrochloride): 0.03%
Loss on drying (%) ([1]; 2 months, hydrochloride): 7.2%
Single largest impurity (%) ([1]; 2 months, hydrochloride): 0.02%
Total relevant substances (%) ([1]; 2 months, hydrochloride): 0.44%
content(%) ([1]; 2 months, hydrochloride): 99.1%
(%) Impurity B (%) ([1]; 3 months): 0.00%
Crystal form ([1]; 3 months): unchanged
Impurity C (%) ([1]; 3 months): 0.02%
appearance ([1]; 3 months): yellow crystalline powder
Enantiomer (%) ([1]; 3 months, hydrochloride): 0.09%
Impurity A (%) ([1]; 3 months, hydrochloride): 0.25%
Loss on drying (%) ([1]; 3 months, hydrochloride): 7.3%
Single largest impurity (%) ([1]; 3 months, hydrochloride): 0.02%
Total relevant substances (%) ([1]; 3 months, hydrochloride): 0.34%
content(%) ([1]; 3 months, hydrochloride): 99.9%
(%) Impurity B (%) ([1]; 6 months): 0.00%
Crystal form ([1]; 6 months): unchanged
Impurity C (%) ([1]; 6 months): 0.02%
appearance ([1]; 6 months): yellow crystalline powder
Enantiomer (%) ([1]; 6 months, hydrochloride): 0.07%
Impurity A (%) ([1]; 6 months, hydrochloride): 0.25%
Loss on drying (%) ([1]; 6 months, hydrochloride): 7.2%
Single largest impurity (%) ([1]; 6 months, hydrochloride): 0.02%
Total relevant substances (%) ([1]; 6 months, hydrochloride): 0.33%
content(%) ([1]; 6 months, hydrochloride): 100.1%
